This passage reports pKa2 and pKa1 results from ChEMBL document CHEMBL1131074, “Conformational analysis of ketolide, conformations of RU 004 in solution and bound to bacterial ribosomes” (J Med Chem, 1998).

What all share (assay type): functional, organism-based
Assay [1] has as its system Escherichia coli. Nature of the assay: Pka2 value was evaluated in Escherichia coli MRE600 strain 70S ribosome (Observation 2).
Assay [2] concerns Escherichia coli. Nature of the assay: Pka1 value was evaluated in Escherichia coli MRE600 strain 70S ribosome (Observation 2).
Assay [3] concerns Escherichia coli. Nature of the assay: Pka1 value was evaluated in Escherichia coli MRE600 strain 70S ribosome (Observation 1).
Assay [4] deals with Escherichia coli. Description: Pka2 value was evaluated in Escherichia coli MRE600 strain 70S ribosome (Observation 1).

Regarding `CC[C@H]1OC(=O)C(C)C(=O)[C@H](C)[C@@H](O[C@@H]2O[C@H](C)C[C@H](N(C)C)[C@H]2O)[C@@](C)(OC)C[C@@H](C)C(=O)[C@H](C)[C@H]2N(NCCCc3ccnc4ccccc34)C(=O)O[C@]12C` (some centres undefined), the pKa2 with Escherichia coli [1] amounted to 6; in the assay on Escherichia coli [4], 8. Moreover, the pKa1 in the assay with Escherichia coli [2] was 3; in the assay with Escherichia coli [3], 5.
